Targets include Adenosine receptor A2a (Homo sapiens, UniProt P29274); Vasopressin V2 receptor (Homo sapiens, UniProt P30518); Motilin receptor (Homo sapiens, UniProt O43193).
The target in assay [1] is T1, Alpha-1A adrenergic receptor (Homo sapiens, UniProt P35348).
T1 sequence (P35348 whole entry): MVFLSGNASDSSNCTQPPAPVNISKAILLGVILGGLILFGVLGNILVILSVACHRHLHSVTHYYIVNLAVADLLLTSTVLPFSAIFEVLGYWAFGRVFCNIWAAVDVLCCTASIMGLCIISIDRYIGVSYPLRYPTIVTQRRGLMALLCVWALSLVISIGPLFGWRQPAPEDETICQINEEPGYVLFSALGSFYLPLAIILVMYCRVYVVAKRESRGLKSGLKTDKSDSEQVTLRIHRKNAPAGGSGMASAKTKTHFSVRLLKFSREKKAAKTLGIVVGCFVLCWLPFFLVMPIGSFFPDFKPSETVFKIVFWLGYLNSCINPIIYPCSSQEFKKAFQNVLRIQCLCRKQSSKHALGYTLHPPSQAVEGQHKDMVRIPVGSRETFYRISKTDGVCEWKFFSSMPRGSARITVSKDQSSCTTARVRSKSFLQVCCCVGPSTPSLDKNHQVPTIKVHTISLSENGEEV
In kind it is functional, cell-based.

In assay [2] the target is T2, Alpha-2A adrenergic receptor (Homo sapiens, UniProt P08913).
T2 sequence (P08913 whole entry): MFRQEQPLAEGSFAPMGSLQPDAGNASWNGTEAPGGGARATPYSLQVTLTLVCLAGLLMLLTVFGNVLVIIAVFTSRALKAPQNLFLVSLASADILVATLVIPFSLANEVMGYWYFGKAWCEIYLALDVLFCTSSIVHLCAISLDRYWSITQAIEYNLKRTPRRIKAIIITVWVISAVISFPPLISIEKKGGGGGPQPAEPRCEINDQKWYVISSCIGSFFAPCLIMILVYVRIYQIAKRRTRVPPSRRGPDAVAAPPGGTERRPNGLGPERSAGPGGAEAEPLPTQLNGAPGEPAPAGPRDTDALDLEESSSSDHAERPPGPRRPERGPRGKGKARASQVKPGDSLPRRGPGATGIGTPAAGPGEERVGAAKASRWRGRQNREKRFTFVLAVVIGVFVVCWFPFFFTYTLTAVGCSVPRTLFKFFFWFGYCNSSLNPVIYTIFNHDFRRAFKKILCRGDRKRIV
Format: functional, cell-based.

Assay [3] concerns the target Beta-1 adrenergic receptor (Homo sapiens, UniProt P08588). Format: functional.
Assay [4] has as its target Gamma-aminobutyric acid receptor subunit alpha-1 (Rattus norvegicus, UniProt P62813).
Assay [5] deals with Glutamate receptor ionotropic, NMDA 1 (Rattus norvegicus, UniProt P35439).
Assay [6] concerns the target T3, 5-hydroxytryptamine receptor 1A (Homo sapiens, UniProt P08908).
T3 sequence (P08908 whole entry): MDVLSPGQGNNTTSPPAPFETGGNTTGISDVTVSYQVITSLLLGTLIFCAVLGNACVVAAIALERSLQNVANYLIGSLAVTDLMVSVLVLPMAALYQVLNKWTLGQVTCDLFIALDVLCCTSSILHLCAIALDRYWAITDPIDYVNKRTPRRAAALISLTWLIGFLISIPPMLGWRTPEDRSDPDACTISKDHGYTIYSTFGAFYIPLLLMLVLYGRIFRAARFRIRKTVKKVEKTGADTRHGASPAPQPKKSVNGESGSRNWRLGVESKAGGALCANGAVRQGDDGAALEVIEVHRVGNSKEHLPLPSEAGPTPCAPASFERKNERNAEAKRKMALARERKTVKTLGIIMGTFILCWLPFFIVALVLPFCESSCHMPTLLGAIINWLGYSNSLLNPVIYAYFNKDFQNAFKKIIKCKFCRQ
In kind it is functional, cell-based.

Assay [7] has as its target Voltage-gated inwardly rectifying potassium channel KCNH2 (Homo sapiens, UniProt Q12809). In kind it is functional. Particulars: read-out: AC50.
Assay [8] concerns the target T4, Neuropeptide Y receptor type 1 (Homo sapiens, UniProt P25929).
T4 sequence (P25929 whole entry): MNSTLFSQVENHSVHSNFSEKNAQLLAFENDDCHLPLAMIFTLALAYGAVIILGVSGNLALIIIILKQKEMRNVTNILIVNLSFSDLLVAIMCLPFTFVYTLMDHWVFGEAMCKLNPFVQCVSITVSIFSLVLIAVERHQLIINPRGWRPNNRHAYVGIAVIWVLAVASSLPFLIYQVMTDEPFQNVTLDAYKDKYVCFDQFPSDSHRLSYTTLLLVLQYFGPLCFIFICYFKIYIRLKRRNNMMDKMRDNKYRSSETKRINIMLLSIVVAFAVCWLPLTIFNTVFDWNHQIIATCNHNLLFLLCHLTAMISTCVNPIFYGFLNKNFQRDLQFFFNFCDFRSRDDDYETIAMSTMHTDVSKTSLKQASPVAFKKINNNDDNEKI

Assay [9] deals with Kappa-type opioid receptor (Homo sapiens, UniProt P41145).
For assay [10], the target named is T5, Equilibrative nucleoside transporter 1 (Homo sapiens, UniProt Q99808).
T5 sequence (Q99808 whole entry): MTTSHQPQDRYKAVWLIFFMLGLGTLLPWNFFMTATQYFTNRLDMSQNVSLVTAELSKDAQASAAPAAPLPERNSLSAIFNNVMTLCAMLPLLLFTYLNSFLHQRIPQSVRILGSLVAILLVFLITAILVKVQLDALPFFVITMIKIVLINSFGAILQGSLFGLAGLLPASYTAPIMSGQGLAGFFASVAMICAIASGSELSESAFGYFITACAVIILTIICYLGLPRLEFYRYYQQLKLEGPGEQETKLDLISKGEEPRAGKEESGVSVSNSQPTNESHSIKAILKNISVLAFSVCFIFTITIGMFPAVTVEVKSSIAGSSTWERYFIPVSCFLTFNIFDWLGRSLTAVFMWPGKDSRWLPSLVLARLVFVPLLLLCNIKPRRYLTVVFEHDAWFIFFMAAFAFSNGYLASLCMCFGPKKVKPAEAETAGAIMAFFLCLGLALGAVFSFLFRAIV

Assay [11] deals with T6, Cannabinoid receptor 1 (Homo sapiens, UniProt P21554). In kind it is functional, cell-based.
In assay [12] the target is T6, Cannabinoid receptor 1. Format: functional, cell-based. The source holds these as a separate data set.
Also: assay procedure not described here.

Sequence of Beta-1 adrenergic receptor (P08588 whole entry): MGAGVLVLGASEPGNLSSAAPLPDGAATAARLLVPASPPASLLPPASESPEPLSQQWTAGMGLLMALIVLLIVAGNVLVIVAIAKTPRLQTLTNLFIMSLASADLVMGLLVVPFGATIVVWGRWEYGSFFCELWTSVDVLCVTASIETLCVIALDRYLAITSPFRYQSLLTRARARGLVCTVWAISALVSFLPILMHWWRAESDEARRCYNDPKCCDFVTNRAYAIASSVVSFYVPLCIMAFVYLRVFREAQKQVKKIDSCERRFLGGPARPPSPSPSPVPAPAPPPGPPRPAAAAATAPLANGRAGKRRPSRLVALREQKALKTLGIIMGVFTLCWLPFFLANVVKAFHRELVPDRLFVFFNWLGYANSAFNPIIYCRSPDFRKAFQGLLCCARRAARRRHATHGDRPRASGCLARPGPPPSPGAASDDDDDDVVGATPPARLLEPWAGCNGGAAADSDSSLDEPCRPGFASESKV
Sequence of Motilin receptor (O43193 whole entry): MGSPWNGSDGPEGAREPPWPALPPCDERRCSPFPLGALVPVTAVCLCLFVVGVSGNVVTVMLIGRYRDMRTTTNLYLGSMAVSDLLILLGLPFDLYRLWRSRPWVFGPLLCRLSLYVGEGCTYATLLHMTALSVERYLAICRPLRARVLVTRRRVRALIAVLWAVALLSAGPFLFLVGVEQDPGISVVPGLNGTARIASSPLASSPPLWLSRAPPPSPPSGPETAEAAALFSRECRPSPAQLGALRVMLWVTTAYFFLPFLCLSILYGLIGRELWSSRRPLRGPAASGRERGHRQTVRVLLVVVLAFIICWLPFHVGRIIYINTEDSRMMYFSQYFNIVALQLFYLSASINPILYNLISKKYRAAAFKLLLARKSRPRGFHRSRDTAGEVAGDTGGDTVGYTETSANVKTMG
Sequence of Gamma-aminobutyric acid receptor subunit alpha-1 (P62813 whole entry): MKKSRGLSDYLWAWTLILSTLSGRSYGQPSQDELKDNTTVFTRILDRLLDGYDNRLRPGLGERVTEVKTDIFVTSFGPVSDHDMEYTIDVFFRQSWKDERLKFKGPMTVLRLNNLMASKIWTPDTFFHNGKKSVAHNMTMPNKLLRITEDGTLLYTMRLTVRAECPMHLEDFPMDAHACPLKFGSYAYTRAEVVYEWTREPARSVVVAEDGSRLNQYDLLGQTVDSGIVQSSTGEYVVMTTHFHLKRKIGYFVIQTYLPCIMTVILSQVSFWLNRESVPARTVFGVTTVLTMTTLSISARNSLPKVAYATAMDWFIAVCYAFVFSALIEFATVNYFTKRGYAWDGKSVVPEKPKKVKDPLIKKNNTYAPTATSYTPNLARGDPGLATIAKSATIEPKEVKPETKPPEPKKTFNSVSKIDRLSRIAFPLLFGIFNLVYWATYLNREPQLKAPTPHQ
Sequence of Voltage-gated inwardly rectifying potassium channel KCNH2 (Q12809 whole entry): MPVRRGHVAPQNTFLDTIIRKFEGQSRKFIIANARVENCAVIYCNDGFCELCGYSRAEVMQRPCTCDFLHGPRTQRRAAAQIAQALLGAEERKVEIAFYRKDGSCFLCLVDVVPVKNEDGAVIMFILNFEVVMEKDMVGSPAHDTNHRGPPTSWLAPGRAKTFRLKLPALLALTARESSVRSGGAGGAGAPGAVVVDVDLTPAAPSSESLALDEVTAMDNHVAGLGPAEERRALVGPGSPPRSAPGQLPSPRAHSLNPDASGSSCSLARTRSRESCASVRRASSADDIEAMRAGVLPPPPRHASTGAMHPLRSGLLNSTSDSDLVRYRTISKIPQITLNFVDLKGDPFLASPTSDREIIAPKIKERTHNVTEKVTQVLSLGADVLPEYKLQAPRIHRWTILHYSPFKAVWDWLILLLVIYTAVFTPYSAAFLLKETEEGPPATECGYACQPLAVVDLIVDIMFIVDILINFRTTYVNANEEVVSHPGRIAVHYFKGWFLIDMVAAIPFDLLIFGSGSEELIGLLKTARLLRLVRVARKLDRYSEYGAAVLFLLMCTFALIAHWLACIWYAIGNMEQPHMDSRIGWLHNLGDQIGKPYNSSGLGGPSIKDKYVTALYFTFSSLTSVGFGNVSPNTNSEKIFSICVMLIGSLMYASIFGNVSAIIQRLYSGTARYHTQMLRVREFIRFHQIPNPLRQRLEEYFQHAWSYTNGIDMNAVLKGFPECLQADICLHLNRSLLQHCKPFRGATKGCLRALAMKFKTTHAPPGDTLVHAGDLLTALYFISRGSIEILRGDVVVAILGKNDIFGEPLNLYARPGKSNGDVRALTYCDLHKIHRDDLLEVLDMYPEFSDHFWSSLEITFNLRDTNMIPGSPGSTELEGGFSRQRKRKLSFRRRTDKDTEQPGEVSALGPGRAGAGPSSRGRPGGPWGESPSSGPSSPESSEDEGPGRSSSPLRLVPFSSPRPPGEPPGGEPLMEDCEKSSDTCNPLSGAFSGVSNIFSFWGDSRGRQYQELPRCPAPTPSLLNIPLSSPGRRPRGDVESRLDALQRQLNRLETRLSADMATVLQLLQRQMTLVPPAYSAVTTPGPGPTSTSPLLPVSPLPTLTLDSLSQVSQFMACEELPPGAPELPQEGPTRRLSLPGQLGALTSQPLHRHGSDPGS
T6 sequence (P21554 whole entry): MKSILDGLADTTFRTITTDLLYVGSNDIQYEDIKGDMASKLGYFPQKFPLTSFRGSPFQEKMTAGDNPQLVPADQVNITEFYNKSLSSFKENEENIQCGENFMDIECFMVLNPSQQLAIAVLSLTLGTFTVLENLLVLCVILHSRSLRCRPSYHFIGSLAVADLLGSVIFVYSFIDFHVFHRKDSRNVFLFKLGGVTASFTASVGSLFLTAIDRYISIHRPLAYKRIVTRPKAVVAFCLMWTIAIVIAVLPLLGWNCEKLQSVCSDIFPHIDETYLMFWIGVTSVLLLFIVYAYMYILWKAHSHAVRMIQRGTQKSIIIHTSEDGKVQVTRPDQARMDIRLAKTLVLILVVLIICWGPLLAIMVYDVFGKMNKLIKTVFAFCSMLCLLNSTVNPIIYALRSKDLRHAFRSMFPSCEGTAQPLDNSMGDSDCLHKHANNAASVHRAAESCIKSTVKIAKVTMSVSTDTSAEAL
Sequence of Vasopressin V2 receptor (P30518 whole entry): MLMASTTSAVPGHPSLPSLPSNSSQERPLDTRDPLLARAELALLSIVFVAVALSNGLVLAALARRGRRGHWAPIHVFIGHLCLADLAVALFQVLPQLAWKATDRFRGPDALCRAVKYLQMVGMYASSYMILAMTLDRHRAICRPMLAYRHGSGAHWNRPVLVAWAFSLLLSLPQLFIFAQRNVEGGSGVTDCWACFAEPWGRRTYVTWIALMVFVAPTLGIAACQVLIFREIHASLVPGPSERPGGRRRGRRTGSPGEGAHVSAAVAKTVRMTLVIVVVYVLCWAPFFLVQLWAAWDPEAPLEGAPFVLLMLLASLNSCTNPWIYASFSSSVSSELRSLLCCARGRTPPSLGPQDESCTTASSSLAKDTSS
Sequence of Adenosine receptor A2a (P29274 whole entry): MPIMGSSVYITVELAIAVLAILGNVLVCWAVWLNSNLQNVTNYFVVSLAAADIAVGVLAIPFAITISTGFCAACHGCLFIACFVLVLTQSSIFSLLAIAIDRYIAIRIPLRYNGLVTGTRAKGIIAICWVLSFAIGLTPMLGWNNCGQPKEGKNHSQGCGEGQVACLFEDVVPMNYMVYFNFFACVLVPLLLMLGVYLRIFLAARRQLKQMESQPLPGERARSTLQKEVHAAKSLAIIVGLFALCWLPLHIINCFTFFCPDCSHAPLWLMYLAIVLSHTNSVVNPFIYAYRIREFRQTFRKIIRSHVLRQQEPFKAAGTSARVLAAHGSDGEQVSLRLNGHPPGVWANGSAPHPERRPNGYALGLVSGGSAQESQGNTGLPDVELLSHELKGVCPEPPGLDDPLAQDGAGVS
Sequence of Kappa-type opioid receptor (P41145 whole entry): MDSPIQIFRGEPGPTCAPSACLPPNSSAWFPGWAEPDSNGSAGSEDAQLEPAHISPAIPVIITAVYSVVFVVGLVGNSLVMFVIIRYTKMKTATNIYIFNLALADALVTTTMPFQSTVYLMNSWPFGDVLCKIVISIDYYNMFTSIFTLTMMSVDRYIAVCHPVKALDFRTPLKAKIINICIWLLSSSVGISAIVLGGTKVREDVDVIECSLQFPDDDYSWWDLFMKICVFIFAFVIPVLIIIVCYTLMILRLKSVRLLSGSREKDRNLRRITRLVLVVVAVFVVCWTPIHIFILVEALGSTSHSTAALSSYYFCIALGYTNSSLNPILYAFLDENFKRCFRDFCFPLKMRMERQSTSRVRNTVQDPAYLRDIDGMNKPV

In general, AC50 refers to the concentration giving half of the maximal activity seen. In the case of `O=C(O)c1ccc2nc(-c3cc(Cl)cc(Cl)c3)oc2c1`, the AC50 (at Adenosine receptor A2a; in assay [1]; in [2]; in [3]; at Vasopressin V2 receptor; in [4]) was over 30 µM each time. Also, the AC50 (in [5]; in assay [6]; in assay [7]; at Motilin receptor; in [8]; in [9]) was over 30 µM in each case. The AC50 in [10] was over 30 µM.
Take `NS(=O)(=O)c1ccc(N2CCCCS2(=O)=O)cc1`: the AC50 (on Adenosine receptor A2a; in assay [1]; in [2]; in assay [3]; on Vasopressin V2 receptor; on Cannabinoid receptor 1 [11]) was over 30 µM throughout. Besides, the AC50 (on Cannabinoid receptor 1 [12]; in [4]; in [5]; in assay [6]; in assay [7]; on Motilin receptor) was over 30 µM each time. Moreover, the AC50 in assay [8] is over 30 µM; in [9], 21 µM.
On to `CC(=O)OCC1=C(C(=O)O)N2C(=O)[C@@H](NC(=O)Cc3cccs3)[C@H]2SC1` [CEPHALOTHIN], for which the AC50 (at Adenosine receptor A2a; in [1]; in assay [2]; in [3]; at Vasopressin V2 receptor; on Cannabinoid receptor 1 [11]) was over 30 µM in each case. The AC50 (on Cannabinoid receptor 1 [12]; in assay [5]; in assay [6]; in [7]; at Motilin receptor; in assay [8]) was over 30 µM in each case. Also, the AC50 in [9] and in assay [10] was over 30 µM each time.
Regarding `CC1=C(C(=O)O)N2C(=O)[C@@H](NC(=O)[C@H](N)C3=CCC=CC3)[C@H]2SC1` [CEPHRADINE], the AC50 (on Adenosine receptor A2a; in assay [1]; in [2]; in assay [3]; on Vasopressin V2 receptor; at Cannabinoid receptor 1 [11]) was over 30 µM each time. For the same compound, the AC50 (at Cannabinoid receptor 1 [12]; in assay [5]; in assay [6]; in assay [7]; at Motilin receptor; in assay [8]) was over 30 µM throughout. The AC50 in [9] and in assay [10] was over 30 µM throughout.
Regarding `CCCCCCOC(=O)NC(=N)c1ccc(NCc2nc3cc(C(=O)N(CCC(=O)OCC)c4ccccn4)ccc3n2C)cc1` [DABIGATRAN ETEXILATE], the AC50 (on Adenosine receptor A2a; in [1]; in assay [2]; in assay [3]; at Vasopressin V2 receptor; on Cannabinoid receptor 1 [11]) was over 30 µM each time. For the same compound, the AC50 (in [5]; in [6]; at Motilin receptor; in assay [8]; in assay [9]; in assay [10]) was over 30 µM each time.
In the case of `CCN1C(=O)NC(c2ccccc2)C1=O` (stereo not drawn) [ETHOTOIN], the AC50 (at Adenosine receptor A2a; in assay [1]; in assay [2]; in assay [3]; at Vasopressin V2 receptor; at Cannabinoid receptor 1 [11]) was over 30 µM in each case. The AC50 (on Cannabinoid receptor 1 [12]; in [5]; in assay [6]; in assay [7]; at Motilin receptor; in assay [8]) was over 30 µM each time. Moreover, the AC50 in assay [9] and in assay [10] was over 30 µM in each case.
`O=C(O)c1nn(Cc2ccc(Cl)cc2Cl)c2ccccc12` [LONIDAMINE]: the AC50 (at Adenosine receptor A2a; in assay [1]; in assay [2]; in assay [3]; at Vasopressin V2 receptor; at Cannabinoid receptor 1 [11]) was over 30 µM each time. The AC50 (at Cannabinoid receptor 1 [12]; in assay [5]; in [6]; in assay [7]; on Motilin receptor; in assay [8]) was over 30 µM throughout. The AC50 in assay [9] and in assay [10] was over 30 µM throughout.
In the case of `CN1CCCN=C1/C=C/c1cccc(O)c1` [OXANTEL], the AC50 (on Adenosine receptor A2a; in [1]; in assay [2]; in assay [3]; at Vasopressin V2 receptor; on Cannabinoid receptor 1 [11]) was over 30 µM in each case. Further, the AC50 on Cannabinoid receptor 1 [12] was over 30 µM; in assay [4], over 30 µM; in [5] it was over 30 µM; in [6] it was over 30 µM; in assay [7], 6.2 µM; at Motilin receptor it was over 30 µM. Also, the half-maximal activity concentration (AC50) in assay [8] was over 30 µM; in assay [9], 20 µM.
As to `CN(C)CCOCC(=O)NC12CC3CC(CC(C3)C1)C2` [TROMANTADINE], the AC50 (on Adenosine receptor A2a; in assay [1]; in assay [2]; in assay [3]; on Vasopressin V2 receptor; at Cannabinoid receptor 1 [11]) was over 30 µM throughout. Also, the AC50 (at Cannabinoid receptor 1 [12]; in assay [5]; in [6]; in assay [7]; at Motilin receptor; in assay [8]) was over 30 µM throughout. The AC50 in [9] is 11 µM; in [10], over 30 µM.

The values above are taken from ChEMBL document CHEMBL5291721, “A preclinical secondary pharmacology resource illuminates target-adverse drug reaction associations of marketed drugs” (Nat Commun, 2023).
